PMC12203311, “Design, synthesis, in silico and in vitro evaluation of pyrrole–indole hybrids as dual tubulin and aromatase inhibitors with potent anticancer activities” (RSC Advances, 2025)

Tests used:
NCI-H522 = assay: NCI60 five-dose screen; assay type: cell-based; details: Homo sapiens, NCI-H522, NSC lung cancer
OVCAR-4 = assay: NCI60 five-dose screen; assay type: cell-based; details: Homo sapiens, OVCAR-4, ovarian cancer
MOLT-4 = assay: NCI60 five-dose screen; assay type: cell-based; details: Homo sapiens, MOLT-4, leukemia
K-562 = assay: NCI60 five-dose screen; assay type: cell-based; details: Homo sapiens, K562, K-562, leukemia
NCI-H322M = assay: NCI60 five-dose screen; assay type: cell-based; details: Homo sapiens, NSC lung cancer
NCI-H460 = assay: NCI60 five-dose screen; assay type: cell-based; details: Homo sapiens, NCI-H460, NSC lung cancer
SK-MEL-28 = assay: NCI60 five-dose screen; assay type: cell-based; details: Homo sapiens, SK-MEL-28, melanoma
KM12 = assay: NCI60 five-dose screen; assay type: cell-based; details: Homo sapiens, KM12, colon cancer
U251 = assay: NCI60 five-dose screen; assay type: cell-based; details: Homo sapiens, U-251, U251, CNS cancer
SK-MEL-2 = assay: NCI60 five-dose screen; assay type: cell-based; details: Homo sapiens, SK-MEL-2, melanoma
HCT-116 = assay: NCI60 five-dose screen; assay type: cell-based; details: Homo sapiens, HCT-116, colon cancer
UO-31 = assay: NCI60 five-dose screen; assay type: cell-based; details: Homo sapiens, UO-31, renal cancer
IGROV1 = assay: NCI60 five-dose screen; assay type: cell-based; details: Homo sapiens, IGROV-1; IGROV1, ovarian cancer
MCF7 = assay: NCI60 five-dose screen; assay type: cell-based; details: Homo sapiens, MCF7, breast cancer
SN12C = assay: NCI60 five-dose screen; assay type: cell-based; details: Homo sapiens, renal cancer
CCRF-CEM = assay: NCI60 five-dose screen; assay type: cell-based; details: Homo sapiens, leukemia
[1] = system: T47D breast cancer cell line; assay: Cytotoxicity MTT assay, T47D; assay type: cell-based, human; details: Homo sapiens, T47D; MTT, 48 hours
In short: (§1)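 T47D breast cancer and L929 mouse fibroblasts in DMEM/10% FBS, seeded at 10 000 cells/well and grown overnight. Compounds at designated concentrations for 48 h at 37 °C, then 0.5 mg/mL MTT for 3 h. Formazan dissolved in DMSO, A570 read, viability as % of DMSO vehicle.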

[2] = system: L929 normal mouse fibroblast cell line; assay: Cytotoxicity MTT assay, L929; assay type: cell-based; details: IC50 (L929)/IC50 (T47D)
In short: as §1

[3] = Cytotoxicity MTT assay, L929; assay type: cell-based, mouse; details: mouse, L929 fibroblast cells; MTT, 48 hours
In short: as §1

OVCAR-8 = assay: NCI60 five-dose screen; assay type: cell-based; details: Homo sapiens, OVCAR-8, ovarian cancer
SW-620 = assay: NCI60 five-dose screen; assay type: cell-based; details: Homo sapiens, SW-620, colon cancer
HCT-15 = assay: NCI60 five-dose screen; assay type: cell-based; details: Homo sapiens, HCT-15, colon cancer
SF-295 = assay: NCI60 five-dose screen; assay type: cell-based; details: Homo sapiens, SF-295, CNS cancer
SF-539 = assay: NCI60 five-dose screen; assay type: cell-based; details: Homo sapiens, SF-539, CNS cancer
T-47D = assay: NCI60 five-dose screen; assay type: cell-based; details: Homo sapiens, T47D, breast cancer
EKVX = assay: NCI60 five-dose screen; assay type: cell-based; details: Homo sapiens, NSC lung cancer
HT29 = assay: NCI60 five-dose screen; assay type: cell-based; details: Homo sapiens, HT-29, HT29, colon cancer
RXF 393 = assay: NCI60 five-dose screen; assay type: cell-based; details: Homo sapiens, RXF 393, renal cancer
NCI/ADR-RES = assay: NCI60 five-dose screen; assay type: cell-based, human; details: Homo sapiens, ovarian cancer
HOP-92 = assay: NCI60 five-dose screen; assay type: cell-based; details: Homo sapiens, HOP-92, NSC lung cancer
UACC-257 = assay: NCI60 five-dose screen; assay type: cell-based; details: Homo sapiens, UACC-257, melanoma
PC-3 = assay: NCI60 five-dose screen; assay type: cell-based; details: Homo sapiens, PC-3, prostate cancer
[4] = read-out: LC50 (the source's name)

O=C(N/N=C/c1ccc[nH]1)c1[nH]c2ccc(Br)cc2c1-c1ccccc1 [Derivative 3a, (E)-N′-((1H-Pyrrol-2-yl)methylene)-5-bromo-3-phenyl-1H-indole-2-carbohydrazide]
GI50 (NCI-H522): 0.045 µM | CC50 (NCI-H522; [4]): 22 µM | GI50 (OVCAR-4): 0.814 µM | CC50 (OVCAR-4; [4]): 33.6 µM | GI50 (MOLT-4): 0.384 µM | CC50 (MOLT-4; [4]): > 100 µM | GI50 (K-562): 0.202 µM | CC50 (K-562; [4]): > 100 µM | GI50 (NCI-H322M): 0.661 µM | CC50 (NCI-H322M; [4]): 36.5 µM | GI50 (NCI-H460): 0.318 µM | CC50 (NCI-H460; [4]): 12.5 µM | GI50 (SK-MEL-28): 0.488 µM | CC50 (SK-MEL-28; [4]): 37.4 µM | GI50 (KM12): 0.388 µM | CC50 (KM12; [4]): 56.5 µM | GI50 (U251): 0.375 µM | CC50 (U251; [4]): 12.4 µM | GI50 (SK-MEL-2): 0.357 µM | CC50 (SK-MEL-2; [4]): 38.8 µM | GI50 (HCT-116): 0.28 µM | CC50 (HCT-116; [4]): 32.3 µM | GI50 (UO-31): 0.431 µM | CC50 (UO-31; [4]): 20.2 µM | GI50 (IGROV1): 0.404 µM | LC50 (concentration causing 50% net cell kill) (IGROV1): 14.6 µM | GI50 (MCF7): 0.136 µM | CC50 (MCF7; [4]): 29.1 µM | GI50 (SN12C): 0.371 µM | CC50 (SN12C; [4]): 3.97 µM | GI50 (CCRF-CEM): 0.345 µM | CC50 (CCRF-CEM; [4]): > 100 µM | IC50 [1]: 1.6 ± 1 µM | Selectivity index (SI) [2]: 16.4 | IC50 at 48 h [3]: 26.3 ± 14.5 µM | GI50 (OVCAR-8): 0.323 µM | CC50 (OVCAR-8; [4]): 6.55 µM | GI50 (SW-620): 0.352 µM | CC50 (SW-620; [4]): 37.4 µM | GI50 (HCT-15): 0.269 µM | CC50 (HCT-15; [4]): 32.3 µM | GI50 (SF-295): 0.224 µM | CC50 (SF-295; [4]): 23.2 µM | GI50 (SF-539): 0.202 µM | CC50 (SF-539; [4]): 14.6 µM | GI50 (T-47D): 0.341 µM | CC50 (T-47D; [4]): 51.3 µM | GI50 (EKVX): 1.23 µM | CC50 (EKVX; [4]): 33.4 µM | GI50 (HT29): 0.329 µM | CC50 (HT29; [4]): 9.31 µM | GI50 (RXF 393): 0.339 µM | CC50 (RXF 393; [4]): 35.1 µM | GI50 (NCI/ADR-RES): 0.44 µM | CC50 (NCI/ADR-RES; [4]): 59.2 µM | GI50 (HOP-92): 0.992 µM | CC50 (HOP-92; [4]): 26.4 µM | GI50 (UACC-257): 0.647 µM | CC50 (UACC-257; [4]): 47.1 µM | GI50 (PC-3): 0.344 µM | CC50 (PC-3; [4]): 29.6 µM
